Laboratory results reported in US7579504B2, “ABCA1 elevating compounds” (Gilead Sciences, Inc., priority 2005, dated 2009).

Each molecule was assayed on ABCA1 mRNA (assay: ABCA1 mRNA induction in THP-1 cells, QuantiGene branched DNA assay). Conditions: 10 μM, 18-20 hours.
Format: cell-based
Description: Modulation of expression of ABCA1 mRNA levels by the compounds of the invention was determined in the following assays.
Induction of ABC1 in THP-1 cells, was measured using QuantiGene® branched DNA assay as per manufacturer's instructions. Cultures of THP-1 were grown to subconfluence in DMEM/10% FBS before replacement with DMEM/BSA and 10 and 3 μM concentrations of the test compounds in DMSO for 18-20 hours. After treatment of cells with compounds, the cells were lysed with lysis buffer at 37° C. for 20 minutes. The cell lysate and ABCA1 specific probe (Genospectra, Inc., Fremont, Calif.) mix were added to the 96 well capture plate and hybridized at 53° C. for 16-18 hours. The signal was amplified using the amplifier and label probes provided with the QuantiGene® assay followed by addition of a luminescent alkaline phosphatase substrate, dioxitane. Luminescence was quantified in Victor V plate reader.
Step 1 • Cells are lysed to release mRNA in the presence of target probes. Target mRNA from lysed cells was then captured by hybridization and transferred to the Capture Plate.
Step 2 • Signal amplification was performed by hybridization of the bDNA Amplifier and Label Probe.
Step 3 • Addition of chemiluminescence substrate yielded a QuantiGene® signal proportional to the amount of mRNA present in the sample.
Table 1 presents the relative fold increase in ABCA1 expression over DMSO for compounds of the invention when tested at a concentration of 10 μM.
With “N-[(4-methylphenyl)methyl](4-{[(naphthylsulfonyl)benzylamino]methyl}cyclohexyl)carboxamide [Compound 38]” the “ABCA1 Induction Fold Increase over DMSO Vehicle” value was 5.0 fold.
With “{4-[({[4-(methylethyl)phenyl]sulfonyl}benzylamino)methyl]cyclohexyl}-N-[(4-methylphenyl)methyl]carboxamide [Compound 28]” the “ABCA1 Induction Fold Increase over DMSO Vehicle” value was 2.7 fold.

Same assay, conditions: Homo sapiens, 18-20 hours, read-out: ABCA1 Induction Fold Increase over DMSO Vehicle
Work on `Cc1ccc(CNC(=O)C2CCC(CN(Cc3ccccc3)S(=O)(=O)c3ccc(C)c(Cl)c3)CC2)cc1` (stereo not drawn) [Compound 25, [4-({[(3-chloro-4-methylphenyl)sulfonyl]benzylamino}methyl)cyclohexyl]-N-[(4-methylphenyl)methyl]carboxamide] yielded a fold induction at 10 µM of 3.5.
`Cc1ccc(CNC(=O)C2CCC(CN(Cc3ccccc3)S(=O)(=O)c3cc(F)ccc3C)CC2)cc1` (stereo not drawn) [Compound 26, [4-({[(5-fluoro-2-methylphenyl)sulfonyl]benzylamino}methyl)cyclohexyl]-N-[(4-methylphenyl)methyl]carboxamide] was tested, and the fold induction at 10 µM was 4.3.
Molecule `Cc1ccc(CNC(=O)C2CCC(CN(Cc3ccccc3)S(=O)(=O)c3cc(Cl)ccc3Cl)CC2)cc1` (stereo not drawn) [Compound 27, [4-({[(2,5-dichlorophenyl)sulfonyl]benzylamino}methyl)cyclohexyl]-N-[(4-methylphenyl)methyl]carboxamide] has a fold induction at 10 µM of 3.7.
Molecule `Cc1ccc(CNC(=O)C2CCC(CN(Cc3ccccc3)S(=O)(=O)c3c(F)cccc3F)CC2)cc1` (stereo not drawn) [Compound 29, [4-({[(2,6-difluorophenyl)sulfonyl]benzylamino}methyl)cyclohexyl]-N-[(4-methylphenyl)methyl]carboxamide] has a fold induction at 10 µM of 6.9.
`CC(=O)Nc1nc(C)c(S(=O)(=O)N(Cc2ccccc2)CC2CCC(C(=O)NCc3ccc(C)cc3)CC2)s1` (stereo not drawn) [Compound 30, N-[4-methyl-5-({[(4-{N-[(4-methylphenyl)methyl]carbamoyl}cyclohexyl)methyl]benzylamino}sulfonyl)-1,3-thiazol-2-yl]acetamide] showed a fold induction at 10 µM of 3.9.
For `Cc1ccc(CNC(=O)C2CCC(CN(Cc3ccccc3)S(=O)(=O)c3cccc(F)c3)CC2)cc1` (stereo not drawn) [Compound 31, [4-({[(3-fluorophenyl)sulfonyl]benzylamino}methyl)cyclohexyl]-N-[(4-methylphenyl)methyl]carboxamide], the fold induction at 10 µM was 6.7.
For `Cc1ccc(CNC(=O)C2CCC(CN(Cc3ccccc3)S(=O)(=O)c3cc(Cl)cc(Cl)c3)CC2)cc1` (stereo not drawn) [Compound 32, [4-({[(3,5-dichlorophenyl)sulfonyl]benzylamino}methyl)cyclohexyl]-N-[(4-methylphenyl)methyl]carboxamide], the fold induction at 10 µM was 4.
`Cc1ccc(CNC(=O)C2CCC(CN(Cc3ccccc3)S(=O)(=O)c3ccc(F)cc3C)CC2)cc1` (stereo not drawn) [Compound 33, [4-({[(4-fluoro-2-methylphenyl)sulfonyl]benzylamino}methyl)cyclohexyl]-N-[(4-methylphenyl)methyl]carboxamide] showed a fold induction at 10 µM of 4.1.
`Cc1ccc(CNC(=O)C2CCC(CN(Cc3ccccc3)S(=O)(=O)c3c(C)cc(C)cc3C)CC2)cc1` (stereo not drawn) [Compound 34, N-[(4-methylphenyl)methyl][4-({benzyl[(2,4,6-trimethylphenyl)sulfonyl]amino}methyl)cyclohexyl]carboxamide] showed a fold induction at 10 µM of 2.1.
`Cc1ccc(CNC(=O)C2CCC(CN(Cc3ccccc3)S(=O)(=O)c3ccccc3C(F)(F)F)CC2)cc1` (stereo not drawn) [Compound 35, N-[(4-methylphenyl)methyl]{4-[(benzyl{[2-(trifluoromethyl)phenyl]sulfonyl}amino)methyl]cyclohexyl}carboxamide] was tested, and the fold induction at 10 µM was 6.1.
Work on `Cc1ccc(CNC(=O)C2CCC(CN(Cc3ccccc3)S(=O)(=O)c3cccc(C(F)(F)F)c3)CC2)cc1` (stereo not drawn) [Compound 36, N-[(4-methylphenyl)methyl]{4-[(benzyl{[3-(trifluoromethyl)phenyl]sulfonyl}amino)methyl]cyclohexyl}carboxamide] yielded a fold induction at 10 µM of 2.7.
With `Cc1ccc(CNC(=O)C2CCC(CN(Cc3ccccc3)S(=O)(=O)c3c(F)c(F)c(F)c(F)c3F)CC2)cc1` (stereo not drawn) [Compound 37, N-[(4-methylphenyl)methyl][4-({[(2,3,4,5,6-pentafluorophenyl)sulfonyl]benzylamino}methyl)cyclohexyl]carboxamide] the fold induction at 10 µM was 3.
Molecule `Cc1ccc(CNC(=O)C2CCC(CN(Cc3ccccc3)S(=O)(=O)c3ccc(C)c(F)c3)CC2)cc1` (stereo not drawn) [Compound 39, [4-({[(3-fluoro-4-methylphenyl)sulfonyl]benzylamino}methyl)cyclohexyl]-N-[(4-methylphenyl)methyl]carboxamide] has a fold induction at 10 µM of 4.
In the case of `Cc1ccc(CNC(=O)C2CCC(CN(Cc3ccccc3)S(=O)(=O)c3ccc(F)c(Cl)c3)CC2)cc1` (stereo not drawn) [Compound 40, [4-({[(3-chloro-4-fluorophenyl)sulfonyl]benzylamino}methyl)cyclohexyl]-N-[(4-methylphenyl)methyl]carboxamide], the fold induction at 10 µM is reported as 2.6.
Work on `Cc1ccc(CNC(=O)C2CCC(CN(Cc3ccccc3)S(=O)(=O)c3ccc4ccccc4c3)CC2)cc1` (stereo not drawn) [Compound 41, N-[(4-methylphenyl)methyl](4-{[(2-naphthylsulfonyl)benzylamino]methyl}cyclohexyl)carboxamide] yielded a fold induction at 10 µM of 5.2.
`Cc1ccc(CNC(=O)C2CCC(CN(Cc3ccccc3)S(=O)(=O)c3ccc(Cl)c(Cl)c3)CC2)cc1` (stereo not drawn) [Compound 42, [4-({[(3,4-dichlorophenyl)sulfonyl]benzylamino}methyl)cyclohexyl]-N-[(4-methylphenyl)methyl]carboxamide] was tested, and the fold induction at 10 µM was 2.6.
For `Cc1ccc(CNC(=O)C2CCC(CN(Cc3ccccc3)S(=O)(=O)c3ccc(C)cc3)CC2)cc1` (stereo not drawn) [Compound 43, N-[(4-methylphenyl)methyl][4-({[(4-methylphenyl)sulfonyl]benzylamino}methyl)cyclohexyl]carboxamide], the fold induction at 10 µM was 5.4.
`Cc1ccc(CNC(=O)C2CCC(CN(Cc3ccccc3)S(=O)(=O)c3ccc(Cl)cc3)CC2)cc1` (stereo not drawn) [Compound 44, [4-({[(4-chlorophenyl)sulfonyl]benzylamino}methyl)cyclohexyl]-N-[(4-methylphenyl)methyl]carboxamide] was tested, and the fold induction at 10 µM was 3.2.
`COc1ccc(S(=O)(=O)N(Cc2ccccc2)CC2CCC(C(=O)NCc3ccc(C)cc3)CC2)cc1` (stereo not drawn) [Compound 45, [4-({[(4-methoxyphenyl)sulfonyl]benzylamino}methyl)cyclohexyl]-N-[(4-methylphenyl)methyl]carboxamide] showed a fold induction at 10 µM of 4.3.
`Cc1ccc(CNC(=O)C2CCC(CN(Cc3ccccc3)S(=O)(=O)c3cccc(Cl)c3F)CC2)cc1` (stereo not drawn) [Compound 46, [4-({[(3-chloro-2-fluorophenyl)sulfonyl]benzylamino}methyl)cyclohexyl]-N-[(4-methylphenyl)methyl]carboxamide] gave a fold induction at 10 µM of 4.5.
For `Cc1ccc(CNC(=O)C2CCC(CN(Cc3ccccc3)S(=O)(=O)c3c(C)nn(C)c3C)CC2)cc1` (stereo not drawn) [Compound 47, N-[(4-methylphenyl)methyl][4-({benzyl[(1,3,5-trimethylpyrazol-4-yl)sulfonyl]amino}methyl)cyclohexyl]carboxamide], the fold induction at 10 µM was 3.5.
With `Cc1ccc(CNC(=O)C2CCC(CN(Cc3ccccc3)S(=O)(=O)c3ccc(-c4ccccc4)cc3)CC2)cc1` (stereo not drawn) [Compound 48, N-[(4-methylphenyl)methyl][4-({benzyl[(4-phenylphenyl)sulfonyl]amino}methyl)cyclohexyl]carboxamide] the fold induction at 10 µM was 2.9.
